This note sets out measurements from ChEMBL document CHEMBL1201862, “PubChem BioAssay data set” (2004).

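Compound exposure: 48 hours, 5 concentrations, 96-well plates. GI50: concentration for 50% inhibition of growth.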 Calls of active or inactive are those of the source. Rule as the data show it: active = GI50 up to about 1.1 µM and inactive = higher. Where only a bound is given, the exact number is not on record here.

Among the test systems are TK-10; IGROV-1; RXF 393; SK-MEL-5; SK-MEL-28; RPMI-8226; NCI-H226; MOLT-4; HCT-15; UO-31; EKVX; SNB-75; U-251; NCI-H460; Malme-3M; ACHN; UACC-62; A549; SF-295.
Assay in all cases: growth of human tumour cells (NCI), 48 h

As for `CC(C)c1ccc(/C=C(\NC(=O)c2ccccc2)c2nc3ccccc3[nH]2)cc1`, the GI50 is 54.5 µM (inactive) in the test on TK-10; 73.8 µM (inactive) with IGROV-1; 36.5 µM (inactive) in the test with RXF 393; 23.5 µM (inactive) in the test on SK-MEL-5; > 10 µM (inactive) in the test on SK-MEL-28; 20 µM (inactive) with RPMI-8226. Also, the GI50 is 55.8 µM (inactive) with NCI-H226; 23.3 µM (inactive) in the test with MOLT-4; 43.1 µM in the test with HCT-15; 38.7 µM (inactive) with UO-31; 34.7 µM (inactive) in the test with EKVX; 36.3 µM (inactive) with SNB-75. Further, the GI50 with U-251 is 39.4 µM (inactive); in the test on NCI-H460 it was 59.4 µM (inactive); in the test on Malme-3M it was 79.3 µM (inactive); with ACHN, 33.7 µM (inactive); in the test on UACC-62, 37.4 µM (inactive); in the test on A549 it was 27.9 µM (inactive).
Take `Cc1cc2c(C)nn(Cc3ccccc3)c2c(C(=O)O)c1C`: the GI50 in the test with TK-10, in the test with IGROV-1, in the test on RXF 393, in the test with SF-295, in the test with SK-MEL-28 and with RPMI-8226 was > 100 µM (inactive) each time. The GI50 in the test on NCI-H226 was > 100 µM (inactive); in the test with MOLT-4, > 100 µM (inactive); in the test with HCT-15 it was above 100 µM; in the test on UO-31 it was > 100 µM (inactive); in the test on EKVX, > 100 µM (inactive); in the test with U-251, > 100 µM (inactive). Moreover, the GI50 in the test with Malme-3M, in the test on ACHN, with UACC-62 and in the test on A549 was > 100 µM (inactive) each time.
Take `CCCC(=O)OC[n+]1ccc2c(C)c3[nH]c4ccccc4c3c(C)c2c1`: the GI50 was 1.71 µM (inactive) with TK-10; 0.51 µM (active) in the test on IGROV-1; 0.067 µM (active) in the test on RXF 393; 0.43 µM (active) in the test on SF-295; 1.54 µM (inactive) with SK-MEL-5; 0.0374 µM (active) with RPMI-8226. Also, the GI50 was 1.11 µM (active) in the test on NCI-H226; 0.0661 µM (active) with MOLT-4; 0.274 µM with HCT-15; 1.87 µM (inactive) in the test on UO-31; > 100 µM (inactive) with SNB-75; 0.498 µM (active) in the test with U-251. In addition, the GI50 is 0.0208 µM (active) with NCI-H460; 1.33 µM (inactive) in the test with Malme-3M; 0.504 µM (active) in the test with ACHN; 1.5 µM (inactive) with UACC-62; 0.317 µM (active) in the test with A549.
Take `O=C1CC23CC(=O)CC2(C1)c1ccccc1C3=O` (configuration not stated): the GI50 in the test on TK-10 was > 100 µM (inactive); with IGROV-1, > 100 µM (inactive); with RXF 393, 40.6 µM (inactive); with SF-295, > 100 µM (inactive); in the test on SK-MEL-28, > 100 µM (inactive); in the test with RPMI-8226, > 100 µM (inactive). The GI50 with NCI-H226, with MOLT-4, with UO-31, in the test on EKVX, in the test with SNB-75 and in the test with U-251 was > 100 µM (inactive) each time. The GI50 in the test on NCI-H460, in the test on Malme-3M, in the test with ACHN, with UACC-62 and with A549 was > 100 µM (inactive) in each case.
Consider `Cc1cc(S(=O)(=O)Nc2nc(N)nc(N3CCOCC3)n2)c(SCC(=O)O)cc1Cl`, for which the GI50 with TK-10, with IGROV-1, with RXF 393, in the test with SF-295, in the test on SK-MEL-5 and with SK-MEL-28 was > 10 µM (inactive) in each case. In addition, the GI50 in the test on RPMI-8226 was > 10 µM (inactive); with NCI-H226 it was > 10 µM (inactive); in the test on MOLT-4 it was > 10 µM (inactive); in the test on HCT-15, above 10 µM; in the test with UO-31 it was > 10 µM (inactive); with EKVX it was > 10 µM (inactive). For the same compound, the GI50 in the test with SNB-75, in the test on U-251, in the test with NCI-H460, with Malme-3M, in the test with ACHN and in the test with A549 was > 10 µM (inactive) each time.
`COc1ccc(C2=Nc3ccccc3NC(=O)C2)cc1`: the GI50 was 27.9 µM (inactive) in the test with TK-10; 34.6 µM (inactive) in the test on IGROV-1; 22.3 µM (inactive) with RXF 393; 23.1 µM (inactive) in the test with SF-295; > 100 µM (inactive) with SK-MEL-5; > 100 µM (inactive) in the test with SK-MEL-28. Also, the GI50 is > 100 µM (inactive) with NCI-H226; > 100 µM (inactive) in the test with MOLT-4; 51.9 µM in the test with HCT-15; 34.4 µM (inactive) in the test on UO-31; > 100 µM (inactive) in the test with EKVX; 23.8 µM (inactive) in the test on SNB-75. Moreover, the GI50 is 28 µM (inactive) with U-251; 31.1 µM (inactive) in the test on NCI-H460; 92 µM (inactive) in the test with Malme-3M; 41.2 µM (inactive) in the test with ACHN; > 100 µM (inactive) with UACC-62; 77.6 µM (inactive) in the test on A549.
With `COc1cc(Nc2cnc3cc(F)c(F)cc3n2)cc(OC)c1`, the GI50 is > 100 µM (inactive) in the test on TK-10; > 100 µM (inactive) in the test on IGROV-1; 12.2 µM (inactive) in the test with RXF 393; 36 µM (inactive) in the test with SF-295; > 100 µM (inactive) with SK-MEL-5; > 100 µM (inactive) in the test with SK-MEL-28. Moreover, the GI50 with NCI-H226 is > 100 µM (inactive); with MOLT-4, > 100 µM (inactive); with HCT-15, above 100 µM; in the test with UO-31 it was > 100 µM (inactive); with EKVX, > 100 µM (inactive); with SNB-75, 18.9 µM (inactive). The GI50 in the test on U-251 was 37.9 µM (inactive); with NCI-H460 it was > 100 µM (inactive); in the test on Malme-3M it was > 100 µM (inactive); with ACHN, > 100 µM (inactive); in the test on UACC-62 it was 18.2 µM (inactive); with A549, > 100 µM (inactive).
`CC(=O)OC1[C@H]2c3cc4c(cc3CN3CCC(=C[C@@H]1O)C23)OCO4` (some centres not stated): the GI50 in the test on TK-10 is > 100 µM (inactive); in the test with IGROV-1, > 100 µM (inactive); in the test with RXF 393 it was > 100 µM (inactive); with SF-295, 43.6 µM (inactive); with SK-MEL-28 it was 23.4 µM (inactive); in the test with RPMI-8226, > 100 µM (inactive). The GI50 was 34.7 µM (inactive) in the test with NCI-H226; > 100 µM (inactive) in the test with MOLT-4; above 100 µM with HCT-15; > 100 µM (inactive) in the test on UO-31; 34 µM (inactive) in the test with EKVX; 47.6 µM (inactive) in the test on SNB-75. The GI50 is > 100 µM (inactive) with U-251; > 100 µM (inactive) in the test with NCI-H460; > 100 µM (inactive) in the test with Malme-3M; 33.1 µM (inactive) in the test on ACHN; 53.7 µM (inactive) in the test with UACC-62; > 100 µM (inactive) in the test with A549.
As for `Cc1cc2cc(Cl)ccc2nc1C(=O)c1ccccc1`, the GI50 in the test with TK-10 was > 100 µM (inactive); with IGROV-1 it was > 100 µM (inactive); with RXF 393 it was 22.5 µM (inactive); with SF-295, 27.8 µM (inactive); with SK-MEL-5, > 100 µM (inactive); with SK-MEL-28 it was > 100 µM (inactive). In addition, the GI50 is > 100 µM (inactive) with RPMI-8226; > 100 µM (inactive) with NCI-H226; > 100 µM (inactive) with MOLT-4; above 100 µM with HCT-15; > 100 µM (inactive) in the test on UO-31; 21.3 µM (inactive) in the test with SNB-75. In addition, the GI50 with U-251, with Malme-3M, in the test with ACHN, in the test on UACC-62 and with A549 was > 100 µM (inactive) throughout.
On to `O=C1C2c3[nH]c4ccccc4c3[C@@H]3CCCCCCCCCCC3C2C(=O)N1c1ccccc1` (some centres not stated), for which the GI50 in the test with TK-10 is 20 µM (inactive); in the test on IGROV-1, 18.7 µM (inactive); in the test with RXF 393, 14.8 µM (inactive); with SF-295 it was 16.3 µM (inactive); in the test with SK-MEL-5 it was 78 µM (inactive); in the test on SK-MEL-28, 23.2 µM (inactive). Also, the GI50 is 38.6 µM (inactive) in the test with RPMI-8226; 33.5 µM (inactive) in the test with NCI-H226; 38.6 µM with HCT-15; 32.9 µM (inactive) in the test on UO-31; 55.1 µM (inactive) with EKVX; 3.18 µM (inactive) in the test on SNB-75. The GI50 in the test with U-251 is 18.2 µM (inactive); in the test on NCI-H460 it was 17.3 µM (inactive); in the test on ACHN, 25.9 µM (inactive); in the test on UACC-62 it was 20.1 µM (inactive); in the test on A549, 21.8 µM (inactive).
Consider `COc1ccc(C(=O)N2c3ccccc3N(C)n3cccc3C2CC(=O)O)cc1` (configuration not stated), for which the GI50 in the test with TK-10, with IGROV-1, in the test with RXF 393, with SF-295, with SK-MEL-5 and in the test with SK-MEL-28 was > 100 µM (inactive) throughout. The GI50 with RPMI-8226 is > 100 µM (inactive); in the test with NCI-H226 it was > 100 µM (inactive); in the test on MOLT-4, > 100 µM (inactive); in the test on HCT-15 it was above 100 µM; in the test with UO-31 it was > 100 µM (inactive); in the test on EKVX, > 100 µM (inactive). The GI50 in the test with SNB-75, with NCI-H460, with Malme-3M, in the test on ACHN, in the test on UACC-62 and in the test on A549 was > 100 µM (inactive) throughout.
